Measured values taken from paper PMC6434189, “Peperomin E and its orally bioavailable analog induce oxidative stress-mediated apoptosis of acute myeloid leukemia progenitor cells by targeting thioredoxin reductase” (Redox Biology, 2019).

Columns and labels:
TrxR1 nSec498 = target: T1, TrxR1 nSec498 (Homo sapiens, UniProt Q16881); test: BLI binding assay, TrxR1 without Sec498; conditions: NADPH reduced TrxR1 nSec498 0.9 μM
T1 construct: protein fragment, without selenocysteine residue; purchased Abcam ab168011
T1 sequence (Q16881 11-497 isoform Q16881-5): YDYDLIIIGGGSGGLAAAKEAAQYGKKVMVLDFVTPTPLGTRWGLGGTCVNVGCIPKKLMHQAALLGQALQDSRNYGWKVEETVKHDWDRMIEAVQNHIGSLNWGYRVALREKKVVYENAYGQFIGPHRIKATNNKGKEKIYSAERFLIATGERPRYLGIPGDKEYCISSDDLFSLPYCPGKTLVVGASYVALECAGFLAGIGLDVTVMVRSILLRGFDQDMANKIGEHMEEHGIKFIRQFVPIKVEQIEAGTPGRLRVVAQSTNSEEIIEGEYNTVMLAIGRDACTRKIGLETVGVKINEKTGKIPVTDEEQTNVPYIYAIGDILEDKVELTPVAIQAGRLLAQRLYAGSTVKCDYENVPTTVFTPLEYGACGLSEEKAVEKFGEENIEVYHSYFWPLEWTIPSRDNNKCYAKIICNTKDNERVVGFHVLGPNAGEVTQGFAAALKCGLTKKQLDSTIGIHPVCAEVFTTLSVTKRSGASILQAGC
Experimental: The binding kinetics of PepE or PepA to purified recombinant proteins were determined using BLI on an Octet RED 96 system (ForteBio, Shanghai, China) following the manufacturer's protocol. All interaction analyses were performed at 25 °C in PBS with 0.2% DMSO. Purified recombinant proteins (0.9 μM, the TrxR1 full length and TrxR1 protein fragment were pre-reduced by 400 μM of NADPH before test) were pre-labeled with biotin using […] (Abcam) following the manufacturer's instruction. Loading of the Dip and Read Super Streptavidin (SSA) Biosensors (ForteBio) were conducted by exposing biotinylated proteins to biosensor tips for 2 h. The 96-well microplates used in the Octet were filled with 200 μL sample or buffer per well and agitated at 1000 rpm. The loaded biosensors were washed in buffer for 600 s and transferred to wells containing PepE at concentrations of 0.625, 1.25, 2.5, 5, and 10 μM or PepA at concentrations of 1.25, 2.5, 5, 10 and 20 μM, respectively, in the buffer. […] Reference measurements were conducted using the buffer instead of PepE (or PepA). A parallel set of SA unloaded biosensors was prepared to act as a control. […] Kinetic parameters (Kon and Kdis) and affinity (KD) were determined from a global fit to a 1:1 binding model of the data between proteins and PepE using Octet software (ForteBio).

GCLC = target: T2, GCLC (Homo sapiens, UniProt P48506); test: BLI binding assay, GCLC
T2 construct: purchased Abcam
T2 sequence (P48506 1-637): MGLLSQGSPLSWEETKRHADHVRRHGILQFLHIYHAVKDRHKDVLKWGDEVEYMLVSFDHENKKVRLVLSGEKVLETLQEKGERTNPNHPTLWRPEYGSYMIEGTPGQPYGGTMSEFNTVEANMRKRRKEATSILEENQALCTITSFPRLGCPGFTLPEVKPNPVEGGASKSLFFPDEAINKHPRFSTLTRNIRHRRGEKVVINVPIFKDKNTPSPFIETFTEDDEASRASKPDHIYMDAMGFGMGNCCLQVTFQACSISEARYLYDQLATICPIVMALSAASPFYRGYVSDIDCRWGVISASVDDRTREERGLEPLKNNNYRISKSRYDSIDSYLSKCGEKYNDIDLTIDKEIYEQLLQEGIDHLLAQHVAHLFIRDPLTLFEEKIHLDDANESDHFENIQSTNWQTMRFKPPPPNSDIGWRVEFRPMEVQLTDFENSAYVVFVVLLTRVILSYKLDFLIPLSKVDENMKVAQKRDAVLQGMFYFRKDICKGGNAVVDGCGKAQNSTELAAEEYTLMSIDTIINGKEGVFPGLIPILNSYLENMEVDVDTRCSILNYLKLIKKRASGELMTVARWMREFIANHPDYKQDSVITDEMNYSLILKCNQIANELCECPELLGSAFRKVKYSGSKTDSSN
Experimental: The binding kinetics of PepE or PepA to purified recombinant proteins were determined using BLI on an Octet RED 96 system (ForteBio, Shanghai, China) following the manufacturer's protocol. All interaction analyses were performed at 25 °C in PBS with 0.2% DMSO. Purified recombinant proteins (0.9 μM, the TrxR1 full length and TrxR1 protein fragment were pre-reduced by 400 μM of NADPH before test) were pre-labeled with biotin using […] (Abcam) following the manufacturer's instruction. Loading of the Dip and Read Super Streptavidin (SSA) Biosensors (ForteBio) were conducted by exposing biotinylated proteins to biosensor tips for 2 h. The 96-well microplates used in the Octet were filled with 200 μL sample or buffer per well and agitated at 1000 rpm. The loaded biosensors were washed in buffer for 600 s and transferred to wells containing PepE at concentrations of 0.625, 1.25, 2.5, 5, and 10 μM or PepA at concentrations of 1.25, 2.5, 5, 10 and 20 μM, respectively, in the buffer. […] Reference measurements were conducted using the buffer instead of PepE (or PepA). A parallel set of SA unloaded biosensors was prepared to act as a control. The sample-sensorgrams were corrected by subtracting the double reference curve. Kinetic parameters (Kon and Kdis) and affinity (KD) were determined from a global fit to a 1:1 binding model of the data between proteins and PepE using Octet software (ForteBio).

[1] = set-up: method as in earlier work; conditions: formulated with phosphate acid; cited from earlier work
KG-1a CD34+ cells = test: KG-1a-Luc CD34+ xenograft in NOD/SCID mice, bioluminescence; type: in vivo
Experimental: Six-week-old female NOD-SCID mice (obtained from the model animal research center of Nanjing University, Nanjing, China) were acclimated for 1 week and housed in groups of five. All animal studies were conducted under the guidelines approved by the Animal Care and Use Committee of the Nanjing University of Chinese Medicine (Nanjing, China). The mice were sublethally irradiated with 2.7 Gy before transplantation.
KG-1a cells tagged with a luciferase reporter gene (KG-1a-Luc) were obtained from Cobioer biotechnology Inc. (Nanjing, Jiangsu, China) and cultured in 90% IMDM supplemented with 10% FBS, 0.05 mM 2-Mercaptoethanol, and 1 μg/mL Puromycin, and grown at 37 °C in a 5% CO2 humidified incubator. CD34 positive cells were enriched (following the 2.3 method) and injected via the tail vein in a final volume of 0.2 mL PBS with 0.5% FBS. For analyzing the luciferase signal, 5 × 10^6 cells KG-1a-Luc cells were used for each recipient animal. Seven days after transplantation, mice with KG-1a-Luc implants were subjected to bioluminescent analysis based on the luciferase signal. Briefly, mice received D-luciferin phosphate solution (100 mg/kg) intravenously 10 min prior to imaging. They were then anesthetized with isoflurane inhalation and imaged using a Xenogen IVIS scanner (PerkinElmer, Waltham, MA, USA). The next day, mice showing successful implantations were randomly divided into the control, DMAPE low dose, DMAPE high dose, and Ara-C treatment groups (n = 5 in each group), which received daily i. g. saline buffer, DMAPE phosphate salt 25 mg/kg, DMAPE phosphate salt 50 mg/kg and Ara-C (50 mg/kg), respectively. The growth of KG-1a-Luc cells was monitored every week by their luciferase signal. Five weeks after the implantation, all mice were sacrificed and their livers, kidneys, and bone marrow were excised for ex vivo bioluminescent imaging. The bioluminescent signal intensity was all quantified using the Living Image software (version 4.2, Carliper Life Science, Inc., Hopkinton, MA, USA) and is presented as photons/second/cm^2/sr (sr denotes steradian).

| Kd (TrxR1 nSec498) [µM] | Kd (GCLC) [µM] | kon (GCLC) [M⁻¹ s⁻¹] | koff (GCLC; read-out: Kdis) [s⁻¹] | SMILES | increased solubility in water compared to PepE [1] | growth and metastasis of AML CD34+ cells in NOD/SCID mice (KG-1a CD34+ cells; 25 mg/kg/d) | luciferase signal in the bone marrow (KG-1a CD34+ cells; 50 mg/kg i.g. daily, week 5, ex vivo imaging) | overall luciferase signal in the liver and kidney, saline vs treated (KG-1a CD34+ cells; 50 mg/kg i.g. daily, week 5, P < 0.001 kidneys, P < 0.01 livers) | luciferase signal intensities compared to the saline-treated mice (KG-1a CD34+ cells; 25 and 50 mg/kg i.g. daily, P < 0.05 at three weeks, P < 0.01 at five weeks) |
| --- | --- | --- | --- | --- | --- | --- | --- | --- | --- |
| 11.9 | 1340 | 465 | 0.625 | C=C1C(=O)OC[C@H]1C(c1cc(OC)c2c(c1)OCO2)c1cc(OC)c2c(c1)OCO2 [PepE, Peperomin E] |  |  |  |  |  |
|  |  |  |  | COc1cc(C(c2cc(OC)c3c(c2)OCO3)[C@@H]2COC(=O)[C@H]2CN(C)CCO)cc2c1OCO2 [DMAPE, (2S,3S)-6-Methyl (hydroxyethyl) amino-2,6-dihydropeperomin E] | more than 1000 fold | significantly suppressed | almost no luciferase signal was detected | significantly stronger in the saline-treated group | significantly weaker |
